The values that follow come from US4710505A, “Asymmetric heterocyclic ester derivatives of 1,4-dihydropyridine-3,5-dicarboxylic acids” (Societe de Recherches Industrielles (S.O.R.I.), priority 1985, dated 1987).

Data set [1] has as its system spontaneously hypertensive rats. The data set is described as follows: Antihypertensive activity in spontaneously hypertensive rats, oral administration. It is filed as in vivo. To be noted: 30 mg/kg; for change in vivo at 30 mg/kg: Rattus norvegicus. As for the experimental part: Spontaneously hypertensive rats aged between 16 and 20 weeks are used. The systolic pressure is measured by plethysmography and the heart rate is obtained from the pressure graph. The compounds studied are administered orally.

For data set [2] the test system is unchanged. The data set is described as follows: Antihypertensive activity in spontaneously hypertensive rats, intravenous administration. It is filed as in vivo. The note with it: single i.v. dose; Ex. 2 30, Ex. 7 100, Ex. 8 300, Ex. 11 30 and 100 μg/kg; versus nicardipine and nifedipine. From the text: 2. Intravenous administration
Spontaneously hypertensive rats aged between 16 and 20 weeks are used. They are anesthetized with diethyl ether, a cannula is inserted into the caudal artery to measure the arterial pressure and a catheter is inserted into the right jugular vein to administer the compounds as described previously (L. S. Watson and L. T. Ludden, New Antihypertensive Drugs, pages 87-96, Spectrum Publication, Inc., 1976).
Each curve C relates to the control group receiving only the vehicle and each curve T relates to the treated group [n (number of animals per group)=4-7]. The said groups are compared either by analysis of variance, if the variances are homogenous (Bartlett's homocedasticity test), or by Kruskall-Wallis's non-parametric test (the statistically significant results being represented as follows:
FIGS. 1-6 relate to the variation in systolic pressure, expressed in mm Hg (1 mm Hg corresponds approximately to 1.333×10^2 Pa), as a function of time, expressed in minutes, and FIGS. 1a-6a relate to the variation in diastolic pressure, also expressed in mm Hg, as a function of time, expressed in minutes, for the treated groups (curves T) compared with the corresponding control groups (curves C), the doses of products administered being as follows:
FIGS. 2 and 2a: nicardipine at 30 μg/kg i.v.,
FIGS. 3 and 3a: Example 2 at 30 μg/kg i.v.,
FIGS. 4 and 4a: Example 7 at 100 μg/kg i.v.,
FIGS. 5 and 5a: Example 8 at 300 μg/kg i.v., and
FIGS. 6 and 6a: Example 11 at 30 and 100 μg/kg i.v. (curves T1 and T2).

The nature of another data set: in vivo. The note with it: rat, intravenous, male Wistar rats weighing 300 g. As to the method: The LD50 was determined by intravenous administration to male Wistar rats weighing 300 g.
The next data set has as its system rabbit aorta. The data set is described as follows: Relaxing effect on isolated rabbit aorta contracted (depolarized) by KCl. The note with it: Oryctolagus cuniculus; rabbit aorta depolarized by 127 mM KCl; read-out: ED50 (dose causing a 50% relaxation of the precontracted arteries). As to the method: I. RELAXING EFFECT ON ISOLATED RABBIT AORTA CONTRACTED BY KCl
The thoracic aortae of male rabbits are removed, cut into narrow strips and placed under tension in an oxygenated survival medium. The contractions of these arteries, the amplitude of which is measured using a myograph, are induced by a 127 mM solution of KCl [R. Towart et al., Arzneim.-Forsch./Drug Res. 32, 338-346 (1982)]. The compounds studied are dissolved in a mixture of anhydrous ethanol and double distilled water (1:1) v/v, the percentage of ethanol in the baths being less than or equal to 0.3% at the end of the experiment. When the contraction plateau is reached, the compound is added to the medium in increasing doses every 15 minutes.

The test system of the next data set is anesthetized dogs. The data set is described as follows: Hemodynamic effects on anesthetized dogs, intraduodenal administration. To be noted: 0.5 mg/kg; for % variation T.P.R. (total peripheral resistances) / duration of the effect, T.P.R. (total peripheral resistances): calculated. It is filed as in vivo, Mongrel dogs. As for the experimental part: III. HEMODYNAMIC EFFECTS ON ANESTHETIZED DOGS Mongrel dogs are anesthetized with pentobarbital sodium (25 mg/kg i.v.). Each animal is placed under artificial respiration and a catheter is introduced into the aorta to measure the arterial pressure. The outputs of the aorta (O. Aor.), right femoral artery (O. Fem.) and left coronary artery (descending part) (O. Cor.) are measured continuously by means of electromagnetic rings. The total peripheral resistances (T.P.R.) are also calculated. […]

Where [3] appears, read: read-out: % variation Heart rate.
Setting [4] is: read-out: % variation Systolic pressure.
[5] abbreviates: versus nicardipine and nifedipine.

Molecules are shown by their SMILES. Read-outs that look alike come from different tables or passages of the source. Some results are limits rather than exact numbers.

As a reminder, the LD50 is the dose expected to kill half of the subjects tested. A high value points to lower toxicity. As to `COC(=O)C1=C(C)NC(C)=C(C(=O)OCC2COC(C)(c3ccccc3)O2)C1c1cccc([N+](=O)[O-])c1` (racemic) [Example 7], in data set [1], the “duration of the effect, Systolic pressure” value (from here on “duration … Systolic pressure”) was above 24 h. In addition, the change in vivo at 30 mg/kg in data set [1] (setting [3]) is 36.4%; in data set [1] (setting [4]), -40.5 ± 5.1%. Moreover, in data set [2], the “duration of the antihypertensive effect (in words)” value was “notably longer than that of nicardipine and nifedipine”. Besides, the LD50 in “in vivo” was 17.8 mg/kg.
Take `COC(=O)C1=C(C)NC(C)=C(C(=O)OCC2COC(C)(c3ccc(Cl)cc3Cl)O2)C1c1cccc([N+](=O)[O-])c1` (racemic) [Example 11]: the EC50 with rabbit aorta was above 5000 nM. Also, the “duration … Systolic pressure” value in data set [1] is above 24 h. The change in vivo at 30 mg/kg is 34% in data set [1] (setting [3]) and -54 ± 5.9% in data set [1] (setting [4]). For the same molecule, in data set [2], the “duration of the antihypertensive effect (in words)” value is “notably longer than that of nicardipine and nifedipine”. Further, the LD50 in the data set “in vivo” was found to be 38.9 mg/kg.
As to `COC(=O)C1=C(C)NC(C)=C(C(=O)OCCN(C)Cc2ccccc2)C1c1cccc([N+](=O)[O-])c1` (centres unmarked) [nicardipine, methyl 2-(N-methyl-N-benzylamino)ethyl 1,4-dihydro-2,6-dimethyl-4-(3-nitrophenyl)pyridine-3,5-dicarboxylate, reference compound], the EC50 with rabbit aorta was 26 nM. Besides, the change in vivo at 30 mg/kg in data set [1] (setting [3]) amounted to 21.3%. For the same molecule, the change in vivo at 30 mg/kg in data set [1] (setting [4]) is -46.2 ± 6.8%. In addition, in the data set on anesthetized dogs, the “% variation D.P. (diastolic pressure)” value is listed as -34.5%, the “% variation O. Aor. (output of the aorta)” value is recorded as “+25%”, the “% variation O. Cor. (output of left coronary artery)” value is “+62.2%” and the “% variation O. Fem. (output of right femoral artery)” value was “+70.6%”. Also, in the data set on anesthetized dogs, the “duration of the effect, D.P. (diastolic pressure)” value amounted to 150 min; the “% variation T.P.R. (total peripheral resistances)” value is -40.5%; the “duration of the effect, T.P.R. (total peripheral resistances)” value is 90 min. Also, the median lethal dose (LD50) in “in vivo” was 11.8 mg/kg.
As for `COC(=O)C1=C(C)NC(C)=C(C(=O)OCC2COC(c3ccccc3)(c3ccccc3)O2)C1c1cccc([N+](=O)[O-])c1` (racemic) [Example 8], the EC50 in the data set on rabbit aorta was above 5000 nM. Further, the “duration … Systolic pressure” value in data set [1] is above 24 h. The change in vivo at 30 mg/kg was 12.4% in data set [1] (setting [3]) and -37 ± 9% in data set [1] (setting [4]). In addition, the “duration of the antihypertensive effect (in words)” value in data set [2] was “notably longer than that of nicardipine and nifedipine”. This molecule returned a median lethal dose (LD50) in the data set “in vivo” of 44.4 mg/kg.
On to `COC(=O)C1=C(C)NC(C)=C(C(=O)OCC2COC(C)(C)O2)C1c1cccc([N+](=O)[O-])c1` (centres unmarked) [Example 1, methyl (2,2-dimethyl-1,3-dioxolan-4-yl)methyl 1,4-dihydro-2,6-dimethyl-4-(3-nitrophenyl)pyridine-3,5-dicarboxylate], for which, in the data set on rabbit aorta, the EC50 is 31 nM. Also, the change in vivo at 30 mg/kg in data set [1] (setting [3]) stood at 16.4%. Further, in data set [1] (setting [4]), the change in vivo at 30 mg/kg was -28.4 ± 7.3%. Further, in the data set with anesthetized dogs, the “% variation D.P. (diastolic pressure)” value is recorded as -42.6%, the “% variation O. Aor. (output of the aorta)” value was “+124%”, the “% variation O. Cor. (output of left coronary artery)” value is reported as “+73.6%” and the “% variation O. Fem. (output of right femoral artery)” value is “+114%”. For the same molecule, in the data set with anesthetized dogs, the “duration of the effect, D.P. (diastolic pressure)” value was determined as 120 min; the “duration of the effect, O. Aor. (output of the aorta)” value was found to be 120 min; the “duration of the effect, O. Fem. (output of right femoral artery)” value came out at 270 min; the “% variation T.P.R. (total peripheral resistances)” value is listed as -65%. The “duration of the effect, T.P.R. (total peripheral resistances)” value in the data set with anesthetized dogs is 300 min. For the same molecule, in the data set with anesthetized dogs (setting [5]), the “cardiac, femoral and coronary outputs (in words)” value is “increased for a longer time and to a greater extent”; the “drop in total peripheral resistances (in words)” value is “greater drop in total peripheral resistances than nicardipine and nifedipine”; the “duration of drop in total peripheral resistances (in words)” value is listed as “considerably longer”. Besides, in “in vivo”, the LD50 was determined as 22.5 mg/kg.
